Earlier results in patent US4127532A, “Novel heptapeptides, intermediates therefor, and compositions and methods employing said heptapeptides” (priority 1977, dated 1978).

Experiments:
[1] = injected directly into the brain of the rat
[2] = test system: partially purified brain opiate receptor sites

H-Tyr-Gly-Gly-Phe-Met-OH [methionine enkephalin]
analgesic activity [1]: weak analgesic agent of short duration
activity in bioassays for opiate activity (opiate activity): very active
binding to partially purified brain opiate receptor sites [2]: binds stereo-specifically
